# Data published in patent US8003649B2 (AstraZeneca AB, priority 2007, dated 2011).
# Molecular target: T1, Androgen Receptor (AR) (Homo sapiens, UniProt P10275, T878A)
# T1 construct: cell based immuno-fluorescence assay using the LNCaP prostate epithelial cell line; endogenous in cells; host or cells: LNCaP clone FGC (ATCC CRL-1740)
# T1 sequence (P10275 1-920 T878A): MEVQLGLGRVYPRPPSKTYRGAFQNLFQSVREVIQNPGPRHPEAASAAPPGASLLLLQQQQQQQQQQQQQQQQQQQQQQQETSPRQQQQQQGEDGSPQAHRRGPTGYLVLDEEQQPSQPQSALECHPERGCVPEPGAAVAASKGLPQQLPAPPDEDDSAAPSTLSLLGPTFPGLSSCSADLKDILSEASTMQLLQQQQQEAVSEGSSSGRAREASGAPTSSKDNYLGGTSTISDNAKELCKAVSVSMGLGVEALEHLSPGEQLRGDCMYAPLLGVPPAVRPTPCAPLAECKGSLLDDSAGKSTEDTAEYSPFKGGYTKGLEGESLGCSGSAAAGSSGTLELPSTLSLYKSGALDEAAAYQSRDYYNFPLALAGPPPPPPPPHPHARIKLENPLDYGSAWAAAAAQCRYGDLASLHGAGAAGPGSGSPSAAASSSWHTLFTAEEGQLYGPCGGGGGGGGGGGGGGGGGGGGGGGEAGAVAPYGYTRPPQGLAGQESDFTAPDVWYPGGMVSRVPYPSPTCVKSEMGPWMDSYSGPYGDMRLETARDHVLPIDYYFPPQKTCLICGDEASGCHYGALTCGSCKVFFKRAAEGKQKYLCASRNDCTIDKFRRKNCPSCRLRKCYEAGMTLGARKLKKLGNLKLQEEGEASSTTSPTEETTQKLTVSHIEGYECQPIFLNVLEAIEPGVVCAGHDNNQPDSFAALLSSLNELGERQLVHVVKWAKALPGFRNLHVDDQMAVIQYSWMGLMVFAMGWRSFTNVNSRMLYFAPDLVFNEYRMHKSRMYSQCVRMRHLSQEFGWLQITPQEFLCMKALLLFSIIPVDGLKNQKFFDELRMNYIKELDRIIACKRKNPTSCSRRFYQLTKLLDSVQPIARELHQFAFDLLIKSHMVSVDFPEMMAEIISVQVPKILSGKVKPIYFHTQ
# Experiment: LNCaP Androgen Receptor Down-regulation Cell Assay (immunofluorescence end point)
# Assay type: cell-based
# Conditions: LNCaP prostate carcinoma cells, compound incubation 20-22 hours, 50% reduction of the AR signal; read-out: Androgen Receptor Down-regulation Assay (a) IC50/μM
# Procedure, shortened: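 LNCaP cells in medium with 5% charcoal-stripped FBS were plated overnight, then treated with a compound dilution series for 20-22 h at 37° C. After fixation, permeabilisation and immunostaining, AR-associated green fluorescence was quantified by laser-scanning microplate cytometry; AR down-regulation expressed as IC50 from fitted dose-response curves.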
row,SMILES,DC50 [µM]
1,"FC(F)(F)c1nnc2ccc(N3CCN(Cc4nccs4)CC3)nn12 [Example 51, 6-[4-(1,3-thiazol-2-ylmethyl)piperazin-1-yl]-3-(trifluoromethyl)-[1,2,4]triazolo[4,3-b]pyridazine]",8.4
2,"Fc1cccc(CN2CCN(c3ccc4nnc(C(F)(F)F)n4c3)CC2)c1 [Example 189, 6-[4-[(3-fluorophenyl)methyl]piperazin-1-yl]-3-(trifluoromethyl)-[1,2,4]triazolo[4,3-a]pyridine]",1.1
3,Fc1ccc2c(CN3CCN(c4ccc5nnc(C(F)F)n5n4)CC3)c[nH]c2c1 [Example 292],7
4,"CC(=O)Nc1ccc(CN2CCN(c3ccc4nnc(C(F)(F)F)n4n3)CC2)cc1 [Example 107, N-[4-[[4-[3-(trifluoromethyl)-[1,2,4]triazolo[4,3-b]pyridazin-6-yl]piperazin-1-yl]methyl]phenyl]acetamide]",7.2
5,Fc1cccc(C2CCN(c3ccc4nnc(C(F)(F)F)n4n3)CC2)c1 [Example 525],5.2
6,"COc1ccc(CN2CCN(c3ccc4nnc(C(F)(F)F)n4c3)CC2)cc1 [Example 192, 6-[4-[(4-methoxyphenyl)methyl]piperazin-1-yl]-3-(trifluoromethyl)-[1,2,4]triazolo[4,3-a]pyridine]",8.7
7,FC(F)(F)c1nnc2ccc(N3CCC(Oc4ccc(Cl)cc4)CC3)nn12 [Example 724],0.69
8,N#Cc1ccc(O[C@H]2CCN(c3ccc4nnc(C(F)(F)F)n4n3)C2)cc1 [Example 591],20
9,"FC(F)(F)c1nnc2ccc(N3CCN(c4c(Cl)cncc4Cl)CC3)nn12 [Example 19, 6-[4-(3,5-dichloropyridin-4-yl)piperazin-1-yl]-3-(trifluoromethyl)-[1,2,4]triazolo[4,3-b]pyridazine]",0.52
10,"N#Cc1ccc(CN2CCN(c3ccc4nnc(C(F)(F)F)n4n3)CC2)cn1 [Example 838, 5-[[4-[3-(trifluoromethyl)[1,2,4]triazolo[4,3-b]pyridazin-6-yl]piperazin-1-yl]methyl]pyridine-2-carbonitrile]",7.6
11,"FC(F)(F)c1nnc2ccc(N3CCN(Cc4c[nH]c5ccccc45)CC3)nn12 [Example 94, 6-[4-(1H-indol-3-ylmethyl)piperazin-1-yl]-3-(trifluoromethyl)-[1,2,4]triazolo[4,3-b]pyridazine]",0.93
12,"CCN(CC)c1ccc(CN2CCN(c3ccc4nnc(C(F)(F)F)n4n3)CC2)cc1 [Example 128, N,N-diethyl-4-[[4-[3-(trifluoromethyl)-[1,2,4]triazolo[4,3-b]pyridazin-6-yl]piperazin-1-yl]methyl]aniline]",2.3
13,Cc1ccc(CN2CCN(c3ccc4nnc(C(F)(F)F)n4n3)CC2)cn1 [Example 776],6.9
14,Fc1cc(F)c(F)c(CN2CCN(c3ccc4nnc(C(F)(F)F)n4n3)CC2)c1 [Example 763],> 9.8
15,"FC(F)(F)c1nnc2ccc(N3CCN(Cc4ccc[nH]4)CC3)nn12 [Example 83, 6-[4-(1H-pyrrol-2-ylmethyl)piperazin-1-yl]-3-(trifluoromethyl)-[1,2,4]triazolo[4,3-b]pyridazine]",2.5
16,COc1ccc(CN2CCN(c3ccc4nnc(C(F)F)n4n3)CC2)c(F)c1 [Example 253],3.7
17,C[C@@H]1CN(c2ccc3nnc(C(F)(F)F)n3n2)CCN1Cc1cccnc1Cl [Example 832],1.4
18,CN(CCO)C(=O)c1ccc(C2CCN(c3ccc4nnc(C(F)(F)F)n4n3)CC2)cc1 [Example 630],2.4
19,"FC(F)(F)c1nnc2ccc(N3CCN(Cc4ccc5ccccc5n4)CC3)nn12 [Example 56, 2-[[4-[3-(trifluoromethyl)-[1,2,4]triazolo[4,3-b]pyridazin-6-yl]piperazin-1-yl]methyl]quinoline]",2.1
20,Fc1cnccc1C1CCN(c2ccc3nnc(C(F)(F)F)n3n2)CC1 [Example 611],1.6
21,N#Cc1ccc(CN2CCN(c3ccc4nnc(C(F)F)n4n3)CC2)cc1 [Example 237],5.3
22,C[C@H]1CN(Cc2cncc(F)c2)CCN1c1ccc2nnc(C(F)(F)F)n2n1 [Example 366],> 33
23,CN1CCC(NC(=O)c2ccc(OC3CCN(c4ccc5nnc(C(F)(F)F)n5n4)CC3)cc2)CC1 [Example 427],4.3

row,SMILES,DC50 [µM]
1,O=C(CCCN1CCOCC1)Nc1ccc(C2CCN(c3ccc4nnc(C(F)(F)F)n4n3)CC2)cc1 [Example 668],1.1
2,FC(F)(F)c1nnc2ccc(N3CCN(Cc4cncc(Cl)c4)CC3)nn12 [Example 770],6.3
3,FC(F)(F)c1nnc2ccc(N3CCN(c4noc(-c5ccccc5)n4)CC3)nn12 [Example 275],6
4,FC(F)(F)c1nnc2ccc(N3CCC(c4noc(-c5ccccc5)n4)CC3)nn12 [Example 301],1.8
5,"FC(F)(F)c1nnc2ccc(N3CCCN(Cc4cccc(Cl)c4)CC3)nn12 [Example 175, 6-[4-[(3-chlorophenyl)methyl]-1,4-diazepan-1-yl]-3-(trifluoromethyl)-[1,2,4]triazolo[4,3-b]pyridazine]",0.68
6,"CN1CCN(CCCC(=O)Nc2cccc(C3CCN(c4ccc5nnc(C(F)(F)F)n5n4)CC3)c2)CC1 [Example 659, 4-(4-methylpiperazin-1-yl)-N-[3-[1-[3-(trifluoromethyl)-[1,2,4]triazolo[4,3-b]pyridazin-6-yl]piperidin-4-yl]phenyl]butanamide]",1
7,"Cc1ccc(Sc2ccc(CN3CCN(c4ccc5nnc(C(F)(F)F)n5n4)CC3)cn2)cc1 [Example 124, 6-[4-[[6-(4-methylphenyl)sulfanylpyridin-3-yl]methyl]piperazin-1-yl]-3-(trifluoromethyl)-[1,2,4]triazolo[4,3-b]pyridazine]",1.7
8,"Cc1cccc(N2CCN(c3ccc4nnc(C(F)(F)F)n4n3)CC2)c1 [Example 36, 6-[4-(3-methylphenyl)piperazin-1-yl]-3-(trifluoromethyl)-[1,2,4]triazolo[4,3-b]pyridazine]",0.99
9,"COc1ccccc1CN1CCCN(c2ccc3nnc(C(F)(F)F)n3n2)CC1 [Example 167, 6-[4-[(2-methoxyphenyl)methyl]-1,4-diazepan-1-yl]-3-(trifluoromethyl)-[1,2,4]triazolo[4,3-b]pyridazine]",2.4
10,"FC(F)(F)c1nnc2ccc(N3CC[C@@H](Oc4cccnc4)C3)nn12 [Example 576, 6-[(3R)-3-(pyridin-3-yloxy)pyrrolidin-1-yl]-3-(trifluoromethyl)[1,2,4]triazolo[4,3-b]pyridazine]",5
11,FC(F)(F)c1ccccc1OCC1CCN(c2ccc3nnc(C(F)(F)F)n3n2)CC1 [Example 471],2
12,"FC(F)(F)c1nnc2ccc(N3CCN(Cc4cccc(Br)c4)CC3)nn12 [Example 118, 6-[4-[(3-bromophenyl)methyl]piperazin-1-yl]-3-(trifluoromethyl)-[1,2,4]triazolo[4,3-b]pyridazine]",0.3
13,N#Cc1cccc(OC2CCN(c3ccc4nnc(C(F)(F)F)n4n3)CC2)c1 [Example 623],0.89
14,"FC(F)(F)c1nnc2ccc(N3CCN(Cc4ccc(Cl)cc4)CC3)nn12 [Example 14, 6-[4-[(4-chlorophenyl)methyl]piperazin-1-yl]-3-(trifluoromethyl)-[1,2,4]triazolo[4,3-b]pyridazine]",0.69
15,COc1ccc(F)c(CN2CCN(c3ccc4nnc(C(F)(F)F)n4n3)CC2)c1 [Example 390],1.7
16,"FC(F)(F)c1nnc2ccc(N3CCN(Cc4ccoc4)CC3)nn12 [Example 90, 6-[4-(furan-3-ylmethyl)piperazin-1-yl]-3-(trifluoromethyl)-[1,2,4]triazolo[4,3-b]pyridazine]",3.2
17,CN(Cc1ccc(F)c(F)c1)C1CCN(c2ccc3nnc(C(F)(F)F)n3n2)CC1 [Example 408],1.7
18,N#Cc1ccccc1S(=O)(=O)N1CCN(c2ccc3nnc(C(F)(F)F)n3n2)CC1 [Example 403],4.8
19,"Nc1ccc(CN2CCN(c3ccc4nnc(C(F)(F)F)n4n3)CC2)cc1 [Example 212, 4-((4-(3-(trifluoromethyl)-[1,2,4]triazolo[4,3-b]pyridazin-6-yl)piperazin-1-yl)methyl)aniline]",3.7
20,Fc1ccc(CC2CCN(c3ccc4nnc(C(F)(F)F)n4n3)CC2)cc1 [Example 536],1.4
21,COc1ccc(C2CCN(c3ccc4nnc(C(F)(F)F)n4n3)CC2)cc1 [Example 523],1
22,"Clc1nnc2ccc(N3CCN(C(c4ccccc4)c4ccccc4)CC3)nn12 [Example 8, 6-(4-benzhydrylpiperazin-1-yl)-3-chloro-[1,2,4]triazolo[4,3-b]pyridazine]",1.7
